The target in series [1] is T1, Transcriptional activator protein LasR (Pseudomonas aeruginosa (strain ATCC 15692 / PAO1 / 1C / PRS 101 / LMG12228)) (UniProt P25084).
T1 sequence (whole entry): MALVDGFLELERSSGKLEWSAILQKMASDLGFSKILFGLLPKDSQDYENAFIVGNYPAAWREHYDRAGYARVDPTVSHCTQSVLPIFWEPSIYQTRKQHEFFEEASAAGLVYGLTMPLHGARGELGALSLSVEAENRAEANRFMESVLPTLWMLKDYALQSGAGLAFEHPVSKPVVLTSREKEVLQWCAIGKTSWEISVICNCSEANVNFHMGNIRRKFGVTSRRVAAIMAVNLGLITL
As to the kind of experiment: Antagonist activity at Pseudomonas aeruginosa PAO1 LasR expressing lasI coexpressing LVA-GFP at 100 to 200 uM after 24 hrs by fluorescence assay.

Series [2] relates to Escherichia coli. As to the kind of experiment: Inhibition of biofilm formation in sdiA-knockout Escherichia coli AY1297 at 200 uM after 24 hrs by crystal violet staining-based assay relative to control. The class given is functional.
For series [3], the system named is Escherichia coli. As to the kind of experiment: Inhibition of biofilm formation in wild-type Escherichia coli RP437 expressing red fluorescent protein assessed as effect on surface area of biofilm at 200 uM after 24 hrs by confocal laser scanning microscopic analysis. It counts as functional, organism-based.
Series [4] concerns Pseudomonas aeruginosa. As to the kind of experiment: Inhibition of biofilm formation in wild-type Pseudomonas aeruginosa PAO1 at 200 uM after 24 hrs by crystal violet staining-based assay relative to control. The class given is functional.
Series [5] relates to Escherichia coli. As to the kind of experiment: Inhibition of biofilm formation in wild-type Escherichia coli RP437 at 200 uM after 24 hrs by scanning electron microscopic analysis. It counts as functional, organism-based.
Series [6] relates to Escherichia coli. As to the kind of experiment: Antimicrobial activity against wild-type Escherichia coli RP437 assessed as inhibition of planktonic growth at 200 uM measured for 2 to 24 hrs. The following applies: in vivo. It counts as organism-based.
Series [7] deals with Escherichia coli. As to the kind of experiment: Ratio of inhibition of biofilm formation in sdiA-knockout Escherichia coli AY1297 to inhibition of biofilm formation in wild-type Escherichia coli RP437. It counts as functional.
Series [8] has as its system Pseudomonas aeruginosa. Put plainly: Antimicrobial activity against wild-type Pseudomonas aeruginosa PAO1 assessed as inhibition of planktonic growth at 200 uM measured for 2 to 24 hrs. It counts as organism-based. The following applies: in vivo.
The subject of series [9] is Escherichia coli. As to the kind of experiment: Inhibition of biofilm formation in wild-type Escherichia coli RP437 expressing red fluorescent protein assessed as reduction in biomass at 200 uM after 24 hrs by confocal laser scanning microscopic analysis relative to control. The class given is functional. The following applies: RP437, 24 h.
The subject of series [10] is Escherichia coli. Put plainly: Antimicrobial activity against sdiA-knockout Escherichia coli AY1297 assessed as inhibition of planktonic growth at 200 uM measured for 2 to 24 hrs. Particulars: in vivo. It counts as organism-based.
The subject of series [11] is Escherichia coli. Put plainly: Inhibition of biofilm formation in sdiA-knockout Escherichia coli AY1297 expressing red fluorescent protein assessed as reduction in biomass at 200 uM after 24 hrs by confocal laser scanning microscopic analysis relative to control. The class given is functional. The following applies: AY1297, 24 h.
Series [12] deals with Escherichia coli. Put plainly: Inhibition of biofilm formation in wild-type Escherichia coli RP437 expressing red fluorescent protein assessed as thickness of biofilm at 200 uM after 24 hrs by confocal laser scanning microscopic analysis (reference value: 253 micrometer). The class given is functional.
For series [13], the system named is Escherichia coli. As to the kind of experiment: Inhibition of biofilm formation in wild-type Escherichia coli RP437 at 200 uM after 24 hrs by crystal violet staining-based assay relative to control. The class given is functional.
Series [14] has as its system Escherichia coli. Put plainly: Inhibition of biofilm formation in sdiA-knockout Escherichia coli AY1297 expressing red fluorescent protein assessed as thickness of biofilm at 200 uM after 24 hrs by confocal laser scanning microscopic analysis (reference value: 157 micrometer). The class given is functional.
The subject of series [15] is Pseudomonas aeruginosa. Put plainly: Inhibition of biofilm formation in wild-type Pseudomonas aeruginosa PAO1 expressing red fluorescent protein assessed as reduction in biomass at 200 uM after 24 hrs by confocal laser scanning microscopic analysis relative to control. It counts as functional.
The test system of series [16] is Pseudomonas aeruginosa PAO1. Put plainly: Inhibition of quorum sensing system-mediated elastase B production in Pseudomonas aeruginosa PAO1 at 200 uM after 24 hrs by colorimetric assay relative to control.
Series [17] has as its system Escherichia coli. As to the kind of experiment: Inhibition of biofilm formation in sdiA-knockout Escherichia coli AY1297 at 200 uM after 24 hrs by scanning electron microscopic analysis. It counts as functional, organism-based.
In series [18] the target is T2, HTH-type quorum-sensing regulator RhlR (Pseudomonas aeruginosa (strain ATCC 15692 / PAO1 / 1C / PRS 101 / LMG12228)) (UniProt P54292).
T2 sequence (whole entry): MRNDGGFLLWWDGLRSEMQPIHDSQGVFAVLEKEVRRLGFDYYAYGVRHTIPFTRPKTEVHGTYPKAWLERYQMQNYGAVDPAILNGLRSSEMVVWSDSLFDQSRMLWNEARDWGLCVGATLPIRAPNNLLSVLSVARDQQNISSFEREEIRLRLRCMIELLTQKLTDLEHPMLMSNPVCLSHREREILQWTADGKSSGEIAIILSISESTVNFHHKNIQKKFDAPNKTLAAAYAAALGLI
Put plainly: Agonist activity at Pseudomonas aeruginosa PAO1 RhlR expressing rhlI coexpressing LVA-GFP at 100 to 200 uM after 24 hrs by fluorescence assay.

In series [19] the test system is Escherichia coli. As to the kind of experiment: Inhibition of biofilm formation in sdiA-knockout Escherichia coli AY1297 expressing red fluorescent protein assessed as effect on surface area of biofilm at 200 uM after 24 hrs by confocal laser scanning microscopic analysis. The class given is functional, organism-based.
Series [20] deals with Escherichia coli. Put plainly: Inhibition of biofilm formation in wild-type Escherichia coli RP437 at 300 uM after 24 hrs by crystal violet staining-based assay relative to control. The class given is functional. Particulars: RP437, 24 h.
In series [21] the test system is Escherichia coli. Put plainly: Antimicrobial activity against wild-type Escherichia coli RP437 assessed as inhibition of planktonic growth at 300 uM measured for 2 to 24 hrs. The class given is organism-based. The following applies: in vivo.
The subject of series [22] is Escherichia coli. Put plainly: Antimicrobial activity against sdiA-knockout Escherichia coli AY1297 assessed as inhibition of planktonic growth at 300 uM measured for 2 to 24 hrs. Particulars: in vivo. It counts as organism-based.
For series [23], the system named is Escherichia coli. As to the kind of experiment: Inhibition of biofilm formation in sdiA-knockout Escherichia coli AY1297 at 300 uM after 24 hrs by crystal violet staining-based assay relative to control. The following applies: AY1297, 24 h. It counts as functional.
Series [24] concerns Pseudomonas aeruginosa. As to the kind of experiment: Antimicrobial activity against wild-type Pseudomonas aeruginosa PAO1 assessed as inhibition of planktonic growth at 300 uM measured for 2 to 24 hrs. It counts as organism-based. Particulars: in vivo.
Series [25] concerns Pseudomonas aeruginosa. As to the kind of experiment: Inhibition of biofilm formation in wild-type Pseudomonas aeruginosa PAO1 expressing red fluorescent protein assessed as effect on thickness of biofilm at 200 uM after 24 hrs by confocal laser scanning microscopic analysis. It counts as functional, organism-based.
Series [26] has as its system Pseudomonas aeruginosa. As to the kind of experiment: Inhibition of biofilm formation in wild-type Pseudomonas aeruginosa PAO1 expressing red fluorescent protein assessed as effect on surface area of biofilm at 200 uM after 24 hrs by confocal laser scanning microscopic analysis. The class given is functional, organism-based.
The test system of series [27] is Escherichia coli. Put plainly: Antimicrobial activity against wild-type Escherichia coli RP437 assessed as inhibition of planktonic growth at 1 to 100 uM measured for 2 to 24 hrs. It counts as organism-based. Particulars: in vivo.
Series [28] deals with Pseudomonas aeruginosa. Put plainly: Antimicrobial activity against wild-type Pseudomonas aeruginosa PAO1 assessed as inhibition of planktonic growth at 100 uM measured for 2 to 24 hrs. The class given is organism-based. Particulars: in vivo.
In series [29] the test system is Escherichia coli. As to the kind of experiment: Inhibition of biofilm formation in wild-type Escherichia coli RP437 at 100 uM. It counts as functional, organism-based.
In series [30] the test system is Pseudomonas aeruginosa. As to the kind of experiment: Inhibition of biofilm formation in wild-type Pseudomonas aeruginosa PAO1 at 50 uM. It counts as functional, organism-based.
Series [31] concerns Pseudomonas aeruginosa. Put plainly: Antimicrobial activity against wild-type Pseudomonas aeruginosa PAO1 assessed as inhibition of planktonic growth at 1 to 100 uM measured for 2 to 24 hrs. The class given is organism-based. The following applies: in vivo.
For series [32], the system named is Pseudomonas aeruginosa. As to the kind of experiment: Inhibition of biofilm formation in wild-type Pseudomonas aeruginosa PAO1 at 100 uM. It counts as functional, organism-based.

Active and inactive are the calls of the source. The calls are words filed in the database; no cut-off is given here.

A word on the inhibition: it is the share of the control response that was lost under treatment. For the molecule `CC1=C(Br)/C(=C\Br)OC1=O`, the inhibition entry in series [1], in series [3], in [5] and in series [19] was “Active” throughout. Besides, the inhibition at 200 µM in [2] (AY1297, 24 h) worked out at 18%; in series [4] (PAO1, 24 h) it was 43%; in series [9] it was 53%; in series [11] it was 36%; in series [13] (RP437, 24 h), 50%; in series [15] (PAO1, 24 h), 41%. The “growth inhibition (GI)” value in series [6], in series [8] and in series [10] was “Non-toxic” throughout. For the same molecule, the Ratio in [7] is listed as 2. Moreover, the Activity in series [12] is reported as 126 um; in series [14], 137 um. This molecule gave an inhibition in series [16] of 43%. For the same molecule, in series [17], the inhibition entry is “inactive”. Besides, the result in series [18] was Active.

As for `C/C(Br)=C1\C=CC(=O)O1`, the inhibition entry in series [1] is “Active”. For the same molecule, the inhibition result in series [2], in [4], in [13], in [15], in [25] and in [26] was “inactive” each time. Also, the figures for the inhibition at 300 µM in [20] and in [23] were 34% and 26%, respectively. The “growth inhibition (GI)” value in [21], in [22] and in series [24] was “Non-toxic” throughout. Moreover, in series [7], the Ratio stood at 2. The same molecule displayed an inhibition in series [16] of 41%. Also, the outcome in series [18] was Active.

As for `O=C1C=C/C(=C/Br)O1`, the “growth inhibition (GI)” value is on record as “Toxic” in series [6], “Toxic” in series [8] and “Non-toxic” in series [10]. Besides, the results for the Activity entry in series [27] and in series [28] were “Non-toxic” and “Toxic”, respectively. The inhibition entry in series [29] and in series [30] was “inactive” each time.

On to `O=C1C=C(Br)/C(=C/Br)O1`, for which the “growth inhibition (GI)” value is recorded as “Toxic” in series [6], “Non-toxic” in [8] and “Toxic” in series [10]. In addition, the Activity entry in series [27] and in [31] was “Non-toxic” throughout. Further, the inhibition entry in series [29] and in [32] was “inactive” in each case.

For the origin of these results see ChEMBL document CHEMBL3217670, “Structures and biofilm inhibition activities of brominated furanones for Escherichia coli and Pseudomonas aeruginosa” (Medchemcomm, 2013).
